Patent US20040214848A1, “Inhibitors of ABC drug transporters in microbial cells” (priority 2001, published 2004)
Where two headings read alike, the source gives them in different places.

Tests used:
[1] = biological target: T1, human PGP (Homo sapiens, UniProt P08183)
[2] = biological target: T1, human PGP; assay: Inhibition of PGP-mediated [3H]-digoxin transport in human PGP-expressing LLC-PK1 (15B-J) cell monolayers; settings: for Concentrations at which inhibitory behavior was exhibited: pH 7.2
[3] = biological target: human PGP membranes (PGP-ATPase) (Homo sapiens, UniProt P08183)
Sequence of human PGP membranes (PGP-ATPase) (P08183 whole entry): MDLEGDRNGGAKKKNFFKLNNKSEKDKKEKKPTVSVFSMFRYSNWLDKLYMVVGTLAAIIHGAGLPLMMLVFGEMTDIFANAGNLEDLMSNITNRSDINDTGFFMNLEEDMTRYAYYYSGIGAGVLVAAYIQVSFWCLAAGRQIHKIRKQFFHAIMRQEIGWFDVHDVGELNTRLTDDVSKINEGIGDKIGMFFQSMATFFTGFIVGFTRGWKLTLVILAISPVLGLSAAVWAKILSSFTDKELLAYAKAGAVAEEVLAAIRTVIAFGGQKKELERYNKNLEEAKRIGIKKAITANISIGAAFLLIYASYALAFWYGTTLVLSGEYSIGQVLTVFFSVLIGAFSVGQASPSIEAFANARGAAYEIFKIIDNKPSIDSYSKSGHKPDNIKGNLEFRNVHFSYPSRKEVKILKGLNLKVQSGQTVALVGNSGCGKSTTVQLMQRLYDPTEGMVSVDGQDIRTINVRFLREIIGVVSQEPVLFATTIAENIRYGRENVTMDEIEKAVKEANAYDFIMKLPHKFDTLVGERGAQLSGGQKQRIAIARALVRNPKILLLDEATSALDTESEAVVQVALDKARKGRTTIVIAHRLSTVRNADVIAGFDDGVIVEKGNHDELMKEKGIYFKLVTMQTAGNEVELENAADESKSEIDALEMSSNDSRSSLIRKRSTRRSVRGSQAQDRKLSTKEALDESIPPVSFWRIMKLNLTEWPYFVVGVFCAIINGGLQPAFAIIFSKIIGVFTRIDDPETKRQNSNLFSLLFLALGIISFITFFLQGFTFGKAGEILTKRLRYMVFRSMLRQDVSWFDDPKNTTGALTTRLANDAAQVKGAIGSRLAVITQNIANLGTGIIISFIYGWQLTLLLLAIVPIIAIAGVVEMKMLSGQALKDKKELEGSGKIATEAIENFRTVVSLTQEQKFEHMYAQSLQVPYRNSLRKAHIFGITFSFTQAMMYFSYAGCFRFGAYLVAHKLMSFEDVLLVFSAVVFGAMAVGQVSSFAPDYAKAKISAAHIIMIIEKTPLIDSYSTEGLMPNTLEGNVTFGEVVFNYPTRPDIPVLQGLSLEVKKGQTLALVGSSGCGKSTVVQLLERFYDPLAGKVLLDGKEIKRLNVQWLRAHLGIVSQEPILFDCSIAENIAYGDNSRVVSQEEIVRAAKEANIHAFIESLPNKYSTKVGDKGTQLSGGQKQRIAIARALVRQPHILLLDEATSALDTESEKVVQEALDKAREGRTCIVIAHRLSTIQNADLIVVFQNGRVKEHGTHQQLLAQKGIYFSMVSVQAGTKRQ
Description: The DMSO concentration (1.0%) was constant for all conditions within the experiment.
The test substances were incubated in the PGP membranes and supplemented with MgATP, with and without sodium orthovanadate present. Orthovanadate inhibits PGP by trapping MgADP in the nucleotide binding site. Thus, the ATPase activity measured in the presence of orthovanadate represents non-PGP ATPase activity and was subtracted from the activity generated without orthovanadate to yield vanadate-sensitive ATPase activity.
(§1) ATPase assays were conducted in 96-well microtiter plates. A 0.06 mL reaction mixture containing 40 μg PGP membranes, test substance, and 4 mM MgATP, in buffer containing 50 mM Tris-MES, 2 mM EGTA, 50 mM KCl, 2 mM dithiothreitol, and 5 mM sodium azide, plus organic solvent was incubated at 37° C. for 20 minutes. […] Identical reaction mixtures containing 100 μM sodium orthovanadate were assayed in parallel. The reactions were stopped by the addition of 30 μl of 10% SDS+Antifoam A. The incubations were followed with addition of 200 μl of 35 mM Ammonium Molybdate in 15 mM Zinc Acetate:10% Ascorbic Acid (1:4) and incubated for an additional 20 minutes at 37° C. Additionally, 0.06 mL aliquots of potassium phosphate standards prepared in the buffer described above, were incubated in the plates containing the test and control substances, with SDS and detection reagent added. The liberation of inorganic phosphate was detected by its absorbance at 800 nm and quantitated by comparing the absorbance to a phosphate standard curve. The concentration dependence of the PGP was analyzed for evidence of saturation of PGP-ATPase activity, and apparent kinetic parameters were calculated by non-linear regression.
as §1, with “plates.” for “plates. A 0.06 mL reaction mixture containing 40 μg PGP membranes, test substance, and 4 mM MgATP, in buffer containing 50 mM Tris-MES, 2 mM EGTA, 50 mM KCl, 2 mM dithiothreitol, and 5 mM sodium azide, plus organic solvent was incubated at 37° C. for 20 minutes.”, “PGP-associated ATPase” for “PGP-ATPase”
as §1, with “The effect of tobramycin on PGP-associated ATPase activity was also assayed. The tobramycin was incubated in human PGP membranes (BD Biosciences, Franklin Lakes, N.J., Gentest Cat. K228) and supplemented with MGATP, with and without sodium orthovanadate present. ATPase” for “ATPase”, “tobramycin,” for “test substance,”, “solvent (1% DMSO)” for “solvent”, “curve.” for “curve. The concentration dependence of the PGP was analyzed for evidence of saturation of PGP-ATPase activity, and apparent kinetic parameters were calculated by non-linear regression.”

[4] = system: CLA (control) Monolayer, LLC-PK1 cells; settings: pig, 120 min, 10 µM, pH 7.2
[5] = system: Plasmodium falciparum strains; settings: more rapidly; cited from earlier work

T1 sequence (P08183 whole entry): as above

Oc1ccc2c3c1O[C@H]1[C@H](O)CC[C@@]4(O)[C@@H](C2)N(CC2CC2)CC[C@]314 [6-β-Naltrexol, 6-β-naltrexol]
Concentration dependence of inhibition of digoxin transport (result in words) [1]: did not appear to be concentration-dependent | Inhibition of digoxin efflux, mean ([2]; concentration range of 0.0001 to 30 μM): 8.5 +/−7.1% | Inhibition of PGP-mediated digoxin transport (result in words) ([2]; ketoconazole at 25 μM, test substance over the concentration range tested): inhibitor of PGP-mediated digoxin transport

CC[C@H]1OC(=O)[C@H](C)[C@@H](O[C@H]2C[C@@](C)(OC)[C@@H](O)[C@H](C)O2)[C@H](C)[C@@H](O[C@@H]2O[C@H](C)C[C@H](N(C)C)[C@H]2O)[C@](C)(O)C[C@@H](C)C(=O)[C@H](C)[C@@H](O)[C@]1(C)O [Erythromycin, erythromycin]
Effect on PGP-associated ATPase activity (result in words) [3]: stimulate PGP-associated ATPase activity | ATPase Activity ([3]; human, 20 min, 0.1 μM): 1.1 nmol/mg/min | ATPase Activity ([3]; human, 20 min, 0.2 µM): 2.0 nmol/mg/min | ATPase Activity ([3]; human, 20 min, 0.4 µM): 0.8 nmol/mg/min | ATPase Activity ([3]; human, 20 min, 0.8 µM): 0.1 nmol/mg/min | ATPase Activity ([3]; human, 20 min, 3.13 µM): 0.5 nmol/mg/min | ATPase Activity ([3]; human, 20 min, 6.25 µM): 0.6 nmol/mg/min | ATPase Activity ([3]; human, 20 min, 12.5 µM): 2.8 nmol/mg/min | ATPase Activity ([3]; human, 20 min, 25 µM): 8.2 nmol/mg/min | ATPase Activity ([3]; human, 20 min, 50 µM): 14.0 nmol/mg/min | ATPase Activity ([3]; human, 20 min, 100 μM): 15.6 nmol/mg/min | pmoles in Receiver [4]: 6.3 pmol

C=C1CC[C@@]2(O)[C@H]3Cc4ccc(O)c5c4[C@@]2(CCN3CC2CC2)[C@H]1O5 [Nalmefene, nalmefene]
Effect on PGP-associated ATPase activity (result in words) ([3]; semi-quantitative assay): not to limit the ATPase activity | Concentration dependence of inhibition of digoxin transport (result in words) [2]: increasingly inhibited in response to increasing concentration | Efflux ratio B→A/A→B, Hi Affinity/Low Cap ([2]; human, LLC-PK1, pH 7.2): 4.2 (3.0) | Efflux ratio B→A/A→B, Low Affinity/Hi Cap ([2]; human, LLC-PK1, pH 7.2): 2.6 (1.9) | Concentrations at which inhibitory behavior was exhibited ([2]; human): 100 to 100000 nM

C=CCN1CC[C@]23c4c5ccc(O)c4O[C@H]2C(=O)CC[C@@]3(O)[C@H]1C5 [Naloxone, naloxone]
Effect on PGP-associated ATPase activity (result in words) ([3]; semi-quantitative assay): not to limit the ATPase activity | Concentration dependence of inhibition of digoxin transport (result in words) [2]: not concentration-dependent | Concentrations at which inhibitory behavior was exhibited ([2]; human): 100 to 100000 nM

O=C1CC[C@@]2(O)[C@H]3Cc4ccc(O)c5c4[C@@]2(CCN3CC2CC2)[C@H]1O5 [Naltrexone, naltrexone]
ATPase Activity ([3]; 0.003 μM test substance): -0.3 nmol/mg/min | ATPase Activity ([3]; 0.01 μM test substance): 0.0 nmol/mg/min | ATPase Activity ([3]; 0.03 μM test substance): -1.6 nmol/mg/min | ATPase Activity ([3]; 0.1 μM test substance): -0.7 nmol/mg/min | ATPase Activity ([3]; 0.3 μM test substance): -1.4 nmol/mg/min | ATPase Activity ([3]; 1.0 μM test substance): -0.8 nmol/mg/min | ATPase Activity ([3]; 3.0 μM test substance): 2.1 nmol/mg/min | ATPase Activity ([3]; 10 μM test substance): 2.0 nmol/mg/min | ATPase Activity ([3]; 30 μM test substance): -2.0 nmol/mg/min | ATPase Activity ([3]; 100 μM test substance): 4.6 nmol/mg/min

NC[C@H]1O[C@H](O[C@H]2[C@H](O)[C@@H](O[C@H]3O[C@H](CO)[C@@H](O)[C@H](N)[C@H]3O)[C@H](N)C[C@@H]2N)[C@H](N)C[C@@H]1O [Tobramycin, tobramycin]
Effect on PGP-associated ATPase activity (result in words) [3]: stimulate PGP-associated ATPase activity | ATPase Activity ([3]; human, 20 min, 0.1 μM): -1.6 nmol/mg/min | ATPase Activity ([3]; human, 20 min, 0.2 µM): -2.6 nmol/mg/min | ATPase Activity ([3]; human, 20 min, 0.4 µM): -2.6 nmol/mg/min | ATPase Activity ([3]; human, 20 min, 0.8 µM): -3.3 nmol/mg/min | ATPase Activity ([3]; human, 20 min, 3.13 µM): -2.6 nmol/mg/min | ATPase Activity ([3]; human, 20 min, 6.25 µM): -1.4 nmol/mg/min | ATPase Activity ([3]; human, 20 min, 12.5 µM): -1.0 nmol/mg/min | ATPase Activity ([3]; human, 20 min, 25 µM): 0.2 nmol/mg/min | ATPase Activity ([3]; human, 20 min, 50 µM): 0.3 nmol/mg/min | ATPase Activity ([3]; human, 20 min, 100 μM): 1.5 nmol/mg/min

CCN(CC)CCCC(C)Nc1ccnc2cc(Cl)ccc12 (stereo not drawn) [chloroquine]
Efflux of the drug, chloroquine-resistant versus chloroquine-sensitive strains [5]: 40-50 times
